Data: patent publication US5681588A, “Delayed release microtablet of β-phenylpropiophenone derivatives” (priority 1993, dated 1997)
Structures can show the parent of a compound that is named as a salt.

Assay: Release of other medicinal substances from the same preparation
Assay type: physicochemical
Conditions: in 1 hour

| Compound | release from the same preparation [%] |
| --- | --- |
| CN/C(=N/CCSCc1nc[nH]c1C)NC#N [cimetidine hydrochloride] | 90 |
| CC(=O)Nc1ccc(O)cc1 [paracetamol] | 90 |
